The subject of one assay is Cryptococcus neoformans. Kind of assay: Antifungal activity against Cryptococcus neoformans. Type of assay: functional.
Assay [1] relates to Aspergillus fumigatus. Nature of the assay: Antifungal activity against Aspergillus fumigatus. Type of assay: functional.
Assay [2] concerns Candida albicans. Kind of assay: Antifungal activity against Candida albicans. Type of assay: functional, organism-based.
For assay [3], the system named is Trichophyton rubrum. Kind of assay: Antifungal activity against Trichophyton rubrum. Type of assay: functional.
Assay [4] has as its system Nakaseomyces glabratus. Nature of the assay: Antifungal activity against Candida glabrata 507 by microdilution method. In kind it is functional. Background: Dilution methods test growth across graded concentrations, often in twofold steps.
Assay [5] relates to Nakaseomyces glabratus. Nature of the assay: Antifungal activity against Candida glabrata 493 by microdilution method. Type of assay: functional.
Assay [6] relates to Candida albicans. Nature of the assay: Antifungal activity against Candida albicans 501 by microdilution method. In kind it is functional.
The test system of a further assay is Pichia kudriavzevii. Kind of assay: Antifungal activity against Candida krusei 168 by microdilution method. Type of assay: functional.
In assay [7] the test system is Nakaseomyces glabratus. Nature of the assay: Antifungal activity against Candida glabrata 531 by microdilution method. In kind it is functional.
The test system of the next assay is Candida parapsilosis. Nature of the assay: Antifungal activity against Candida parapsilosis 96 by microdilution method. The note with it: Lodderomyces parapsilosis. In kind it is functional.
Assay [8] has as its system Candida albicans. Kind of assay: Antifungal activity against Candida albicans ATCC 10231 by microdilution method. In kind it is functional.
Another assay deals with Candida tropicalis. Nature of the assay: Antifungal activity against Candida tropicalis 166 by microdilution method. Type of assay: functional.
For assay [9], the system named is Candida albicans. Kind of assay: Antifungal activity against Candida albicans 498 by microdilution method. In kind it is functional.
Assay [10] relates to Nakaseomyces glabratus. Nature of the assay: Antifungal activity against Candida glabrata 510 by microdilution method. In kind it is functional.
Assay [11] has as its system Nakaseomyces glabratus. Kind of assay: Antifungal activity against Candida glabrata 587 by microdilution method. Type of assay: functional.
Assay [12] relates to Nakaseomyces glabratus. Nature of the assay: Antifungal activity against Candida glabrata 482 by microdilution method. In kind it is functional.
Assay [13] deals with Candida albicans. Nature of the assay: Antifungal activity against Candida albicans 53 by microdilution method. In kind it is functional.
Assay [14] deals with Trichophyton rubrum. Nature of the assay: Antifungal activity against Trichophyton rubrum ATCC MYA3108 by CLSI-based microdilution method. Type of assay: functional.
In assay [15] the test system is Trichophyton rubrum. Nature of the assay: Antifungal activity against Trichophyton rubrum deltaTruMDR2 by CLSI-based microdilution method. In kind it is functional.
In assay [16] the test system is Aspergillus fumigatus. Nature of the assay: Antifungal activity against Aspergillus fumigatus NBRC 4400 by microdilution method. In kind it is functional.
Assay [17] deals with Trichophyton mentagrophytes. Nature of the assay: Antifungal activity against Trichophyton mentagrophytes IFM 46027 by microdilution method. In kind it is functional.
The test system of assay [18] is Trichophyton rubrum. Nature of the assay: Antifungal activity against Trichophyton rubrum NBRC 5467 by microdilution method. Type of assay: functional.

Structures are written as SMILES. ≈ marks a conversion by molar mass, not a printed value.

For orientation: MIC means the lowest concentration found to suppress growth. As to `Cc1c(O)c2c(c(C(=O)/C=C/c3ccccc3)c1O)OC(C)(C)C=C2`, the MIC is 4 to 8 µg/mL (≈ 11.9 to 23.8 µM) against Cryptococcus neoformans and 16 µg/mL (≈ 47.6 µM) against Aspergillus fumigatus [1].
The term IC50 denotes the concentration that gives 50% inhibition. The low end stands for greater potency, the high end for weaker potency. In the assay with Candida albicans [2], `C=CC(C)(C)c1cc([C@@H]2CC(=O)c3c(O)cc(O)c(CC=C(C)C)c3O2)c(O)cc1O` had an IC50 of 121 µM and an MIC of 121 µg/mL (≈ 285 µM).
What is called MIC50 is an inhibitory concentration at the 50% level, which refers to growth in some studies and to a panel of isolates in others. High values mean weaker potency, low ones greater potency. For `CC(=O)c1c(O)c(C)c(O)c(Cc2c(O)c(C(=O)/C=C/c3ccc(O)cc3)c3c(c2O)[C@@H]2Oc4c(Cc5c(O)c(O)c(O)c(C(C)=O)c5O)c(O)c(C(=O)/C=C/c5ccc(O)cc5)c5c4[C@H](CC(C)(C)O5)[C@H]2C(C)(C)O3)c1O`, the values for the MIC50 with Cryptococcus neoformans and with Aspergillus fumigatus [1] were 4 to 8 µg/mL (≈ 3.75 to 7.5 µM) and 16 µg/mL (≈ 15 µM), respectively.
For `C=C(C)CC(O)c1c(O)ccc(C(=O)/C=C/c2ccc(O)cc2)c1O` (configuration not stated), the MIC50 with Candida albicans [2] worked out at 15 µg/mL (≈ 44.1 µM); against Cryptococcus neoformans, 7 µg/mL (≈ 20.6 µM).
Take `Nc1ccccc1C(=O)/C=C/c1ccc([N+](=O)[O-])cc1`: the minimum inhibitory concentration (MIC) against Trichophyton rubrum [3] is 0.5 µg/mL (≈ 1.86 µM).
Compound `Nc1ccccc1C(=O)/C=C/c1cccc(F)c1` gave a minimal inhibitory concentration (MIC) against Trichophyton rubrum [3] of 0.5 µg/mL (≈ 2.07 µM).
For the compound `O=C(/C=C/c1ccc(Cl)cc1Cl)c1ccc(/N=N/c2c(O)cccc2O)cc1`, the values for the MIC against Candida albicans [2] and against Aspergillus fumigatus [1] were 15 µg/mL (≈ 36.3 µM) and 31.2 µg/mL (≈ 75.6 µM), respectively.
Turning to `C[C@@H]1O[C@@H](Oc2c(-c3cc(O)c(O)c(O)c3)oc3cc(O)cc(O)c3c2=O)[C@H](O)[C@H](O)[C@H]1O`, the MIC against Nakaseomyces glabratus [4] is 3.9 to 7.8 µg/mL (≈ 8.4 to 16.8 µM); in the assay with Nakaseomyces glabratus [5], 3.9 to 7.8 µg/mL (≈ 8.4 to 16.8 µM); with Candida albicans [6], greater than 83 µg/mL; against Pichia kudriavzevii it was greater than 83 µg/mL; against Nakaseomyces glabratus [7], 3.9 to 7.8 µg/mL (≈ 8.4 to 16.8 µM); in the assay on Candida parapsilosis, greater than 83 µg/mL. In addition, the MIC is greater than 83 µg/mL against Candida albicans [8]; greater than 83 µg/mL with Candida tropicalis; greater than 83 µg/mL against Candida albicans [9]; 3.9 to 7.8 µg/mL (≈ 8.4 to 16.8 µM) in the assay on Nakaseomyces glabratus [10]; 3.9 to 7.8 µg/mL (≈ 8.4 to 16.8 µM) against Nakaseomyces glabratus [11]; 3.9 to 7.8 µg/mL (≈ 8.4 to 16.8 µM) against Nakaseomyces glabratus [12]. The compound also displayed an MIC with Candida albicans [13] greater than 83 µg/mL.
Take `O=c1c(O)c(-c2ccccc2)oc2ccccc12` [FLAVONOL]: the MIC is 3.9 to 15.6 µg/mL (≈ 16.4 to 65.5 µM) with Nakaseomyces glabratus [4]; 3.9 to 15.6 µg/mL (≈ 16.4 to 65.5 µM) with Nakaseomyces glabratus [5]; greater than 83 µg/mL with Candida albicans [6]; greater than 83 µg/mL in the assay on Pichia kudriavzevii; 3.9 to 15.6 µg/mL (≈ 16.4 to 65.5 µM) against Nakaseomyces glabratus [7]; greater than 83 µg/mL in the assay on Candida parapsilosis. In addition, the MIC was greater than 83 µg/mL in the assay on Candida albicans [8]; greater than 83 µg/mL with Candida tropicalis; greater than 83 µg/mL against Candida albicans [9]; 3.9 to 15.6 µg/mL (≈ 16.4 to 65.5 µM) in the assay on Nakaseomyces glabratus [10]; 3.9 to 15.6 µg/mL (≈ 16.4 to 65.5 µM) in the assay on Nakaseomyces glabratus [11]; 3.9 to 15.6 µg/mL (≈ 16.4 to 65.5 µM) with Nakaseomyces glabratus [12]. The MIC in the assay on Candida albicans [13] is greater than 83 µg/mL.
For the compound `O=c1c(-c2ccc(O)cc2)coc2cc(O)cc(O)c12` [GENISTEIN], the minimal inhibitory concentration (MIC) in the assay with Trichophyton rubrum [14] and against Trichophyton rubrum [15] was greater than 1000 µg/mL in each case.
On to `CC(C)=CCc1c(O)ccc(C(=O)/C=C/c2ccc(O)cc2)c1O` [ISOBAVACHALCONE], for which the MIC50 is 3 µg/mL (≈ 9.25 µM) with Candida albicans [2] and 7 µg/mL (≈ 21.6 µM) in the assay with Cryptococcus neoformans.
For `O=c1c(O)c(-c2ccc(O)cc2)oc2cc(O)cc(O)c12` [KAEMPFEROL], the MIC against Nakaseomyces glabratus [4] is 31.2 µg/mL (≈ 109 µM); with Candida albicans [2], 256 to 512 µg/mL (≈ 894 to 1790 µM); against Nakaseomyces glabratus [5], 31.2 µg/mL (≈ 109 µM); against Candida albicans [6], greater than 83 µg/mL; against Pichia kudriavzevii it was greater than 83 µg/mL; in the assay with Nakaseomyces glabratus [7], 31.2 µg/mL (≈ 109 µM). Moreover, the MIC with Candida parapsilosis is greater than 83 µg/mL; with Candida albicans [8], greater than 83 µg/mL; against Candida tropicalis it was greater than 83 µg/mL; against Candida albicans [9], greater than 83 µg/mL; against Nakaseomyces glabratus [10] it was 31.2 µg/mL (≈ 109 µM); against Nakaseomyces glabratus [11] it was 31.2 µg/mL (≈ 109 µM). Moreover, the minimal inhibitory concentration (MIC) with Nakaseomyces glabratus [12] was 31.2 µg/mL (≈ 109 µM); with Candida albicans [13], greater than 83 µg/mL.
Turning to `C[C@@H]1O[C@@H](Oc2c(-c3ccc(O)c(O)c3)oc3cc(O)cc(O)c3c2=O)[C@H](O)[C@H](O)[C@H]1O` [QUERCITRIN], the MIC against Nakaseomyces glabratus [4] was 7.8 to 62.5 µg/mL (≈ 17.4 to 139 µM); against Nakaseomyces glabratus [5], 7.8 to 62.5 µg/mL (≈ 17.4 to 139 µM); in the assay on Candida albicans [6] it was greater than 83 µg/mL; with Pichia kudriavzevii it was greater than 83 µg/mL; against Nakaseomyces glabratus [7] it was 7.8 to 62.5 µg/mL (≈ 17.4 to 139 µM); in the assay on Candida parapsilosis it was greater than 83 µg/mL. Further, the MIC was greater than 83 µg/mL in the assay on Candida albicans [8]; greater than 83 µg/mL with Candida tropicalis; greater than 83 µg/mL against Candida albicans [9]; 7.8 to 62.5 µg/mL (≈ 17.4 to 139 µM) against Nakaseomyces glabratus [10]; 7.8 to 62.5 µg/mL (≈ 17.4 to 139 µM) in the assay with Nakaseomyces glabratus [11]; 7.8 to 62.5 µg/mL (≈ 17.4 to 139 µM) in the assay on Nakaseomyces glabratus [12]. The same compound yielded an MIC in the assay on Candida albicans [13] greater than 83 µg/mL.
For `COc1c(O)cc(O)c2c(=O)cc(-c3ccccc3)oc12` [WOGONIN], the MIC came out at 230 µg/mL (≈ 809 µM) in the assay with Aspergillus fumigatus [16], 60 µg/mL (≈ 211 µM) in assay [17] and 60 µg/mL (≈ 211 µM) against Trichophyton rubrum [18].

These data come from ChEMBL document CHEMBL4311957, “Recent advances in natural antifungal flavonoids and their derivatives” (Bioorg Med Chem Lett, 2019).
